Experimental data: patent US5665515A, “Method for obtaining a printing plate according to the silver salt diffusion transfer process” (Agfa-Gevaert N.V., priority 1994, dated 1997)

Assay: pKa of the mercapto group by titration with hydrochloric acid in water
Assay type: physicochemical
Settings: 0.002 mole/liter, dissolved at pH 11, titrated with 0.1 mole/liter hydrochloric acid
Method: The pKa of the mercapto-compounds in connection with the present invention were determined according to the method described in "Ionization Constants of Acids and Bases--A Laboratory Manual" written by Adrien Albert and E. P. Serjeant and Edited by John Wiley & Sons (New York) page 110-112 (1962).
In these particular cases, the compounds were dissolved in water at pH 11. The concentration of the compounds was 0.002 mole/liter and the mixture was then titrated with a solution of hydrochloric acid (0.1 mole/liter).

pKa	Structure (SMILES)
3.4	CCCCCCCCn1nnnc1S [compound 4]
3.2	CCCCn1nnnc1S [compound 5]
3.3	CCCCN(CCCC)C(=O)Cn1nnnc1S [compound 2]
3.1	Sc1nnnn1-c1ccccc1 [compound 6]
